Assay [1] addresses T1, human adenosine A2a receptor (Homo sapiens, UniProt P29274).
T1 construct: expressed in transfected cells; host or cells: CHO-K1
Kind of assay: Adenosine A2a Receptor Functional Assay (A2AGAL2). Format: cell-based. Conditions: CHO-K1 cells, cAMP inducible beta-galactosidase reporter, 15 nM NECA agonist challenge. As for the experimental part:
Adenosine A2a Receptor Functional Assay (A2AGAL2)
To initiate the functional assay, cryopreserved CHO-K1 cells overexpressing the human adenosine A2a receptor and containing a cAMP inducible beta-galactosidase reporter gene were thawed, centrifuged, DMSO containing media removed, and then seeded with fresh culture media into clear 384-well tissue culture treated plates (BD #353961) at a concentration of 10K cells/well. Prior to assay, these plates were cultured for two days at 37° C., 5% CO2, 90% Rh. On the day of the functional assay, culture media was removed and replaced with 45 uL assay medium (Hams/F-12 Modified (Mediatech # 10-080CV) supplemented w/0.1% BSA). Test compounds were diluted and 11 point curves created at a 1000× concentration in 100% DMSO. Immediately after addition of assay media to the cell plates, 50 nL of the appropriate test compound antagonist or agonist control curves were added to cell plates using a Cartesian Hummingbird. Compound curves were allowed to incubate at room temperature on cell plates for approximately 15 minutes before addition of a 15 nM NECA (Sigma E2387) agonist challenge (5 uL volume). A control curve of NECA, a DMSO/Media control, and a single dose of Forskolin (Sigma F3917) were also included on each plate. After additions, cell plates were allowed to incubate at 37° C., 5% CO2, 90% Rh for 5.5-6 hours. After incubation, media was removed, and cell plates were washed 1×50 uL with DPBS w/o Ca & Mg (Mediatech 21-031-CV). Into dry wells, 20 uL of 1× Reporter Lysis Buffer (Promega E3971 (diluted in dH2O from 5× stock)) was added to each well and plates frozen at −20° C. overnight. For β-galactosidase enzyme calorimetric assay, plates were thawed out at room temperature and 20 μL 2× assay buffer (Promega) was added to each well. Color was allowed to develop at 37° C., 5% CO2, 90% Rh for 1-1.5 h or until reasonable signal appeared. The calorimetric reaction was stopped with the addition of 60 μL/well 1M sodium carbonate. Plates were counted at 405 nm on a SpectraMax Microplate Reader (Molecular Devices). Data was analyzed in Microsoft Excel and IC/EC50 curves were fit using a standardized macro.

Assay [2] deals with T2, human adenosine A1 receptor (Homo sapiens, UniProt P30542).
T2 construct: expressed in transfected cells; host or cells: CHO-K1
T2 sequence (P30542 1-326): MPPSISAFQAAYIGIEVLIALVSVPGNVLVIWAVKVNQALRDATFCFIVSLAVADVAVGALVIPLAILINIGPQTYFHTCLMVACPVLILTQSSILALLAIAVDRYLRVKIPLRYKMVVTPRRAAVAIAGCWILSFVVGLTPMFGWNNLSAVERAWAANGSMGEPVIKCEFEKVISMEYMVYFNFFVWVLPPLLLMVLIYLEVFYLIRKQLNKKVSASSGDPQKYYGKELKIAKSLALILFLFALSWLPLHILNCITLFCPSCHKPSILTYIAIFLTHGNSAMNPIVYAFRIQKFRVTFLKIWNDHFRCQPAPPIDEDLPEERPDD
Kind of assay: Adenosine A1 Receptor Functional Assay (A1GAL2). The class given is cell-based. The following applies: CHO-K1 cells, cAMP inducible beta-galactosidase reporter, 4 nM r-PIA/1 uM Forskolin challenge. The method, then:
Adenosine A1 Receptor Functional Assay (A1GAL2)
To initiate the functional assay, cryopreserved CHO-K1 cells overexpressing the human adenosine A1 receptor and containing a cAMP inducible beta-galactosidase reporter gene were thawed, centrifuged, DMSO containing media removed, and then seeded with fresh culture media into clear 384-well tissue culture treated plates (BD #353961) at a concentration of 10K cells/well. Prior to assay, these plates were cultured for two days at 37° C., 5% CO2, 90% Rh. On the day of the functional assay, culture media was removed and replaced with 45 uL assay medium (Hams/F-12 Modified (Mediatech # 10-080CV) supplemented w/0.1% BSA). Test compounds were diluted and 11 point curves created at a 1000× concentration in 100% DMSO. Immediately after addition of assay media to the cell plates, […] of the appropriate test compound antagonist or agonist control curves were added to cell plates using a Cartesian Hummingbird. Compound curves were allowed to incubate at room temperature on cell plates for approximately 15 minutes before addition of a 4 nM r-PIA (Sigma P4532)/1 uM Forskolin (Sigma F3917) agonist challenge (5 uL volume). A control curve of r-PIA in 1 uM Forskolin, a DMSO/Media control, and a single dose of Forskolin were also included on each plate. After additions, cell plates were allowed to incubate at 37° C., 5% CO2, 90% Rh for 5.5-6 hours. After incubation, media was removed, and cell plates were washed 1×50 uL with DPBS w/o Ca & Mg (Mediatech 21-031-CV).
Into dry wells, 20 uL of 1× Reporter Lysis Buffer (Promega E3971 (diluted in dH2O from 5× stock)) was added to each well and plates frozen at −20° C. overnight. For β-galactosidase enzyme calorimetric assay, plates were thawed out at room temperature and 20 μL 2× assay buffer (Promega) was added to each well. Color was allowed to develop at 37° C., 5% CO2, 90% Rh for 1-1.5 h or until reasonable signal appeared. The calorimetric reaction was stopped with the addition of 60 μL/well 1M sodium carbonate. Plates were counted at 405 nm on a SpectraMax Microplate Reader (Molecular Devices). Data was analyzed in Microsoft Excel and IC/EC50 curves were fit using a standardized macro.

The structures appear in SMILES notation.

T1 sequence (P29274 whole entry): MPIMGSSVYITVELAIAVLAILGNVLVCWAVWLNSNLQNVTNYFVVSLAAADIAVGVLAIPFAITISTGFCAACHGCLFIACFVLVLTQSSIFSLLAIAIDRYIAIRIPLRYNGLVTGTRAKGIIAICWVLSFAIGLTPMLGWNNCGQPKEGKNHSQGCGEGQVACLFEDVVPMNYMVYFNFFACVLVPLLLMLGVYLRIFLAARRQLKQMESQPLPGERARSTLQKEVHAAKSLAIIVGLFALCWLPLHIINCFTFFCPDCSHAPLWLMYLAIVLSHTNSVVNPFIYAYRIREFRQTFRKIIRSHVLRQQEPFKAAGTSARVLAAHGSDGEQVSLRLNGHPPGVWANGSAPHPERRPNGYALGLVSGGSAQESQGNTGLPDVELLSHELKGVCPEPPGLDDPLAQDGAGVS

One may read the Ki as the equilibrium dissociation constant of an inhibitor or competing ligand from its target. High values mean a looser hold on the target, low ones a stronger hold on the target. As to `Nc1nc(-c2ccc(C(F)F)o2)nc2sc(CN3CCCC(F)(F)C3)cc12` [Example 101, 2-(5-Difluoromethyl-furan-2-yl)-6-(3,3-difluoro-piperidin-1-ylmethyl)-thieno[2,3-d]pyrimidin-4-ylamine], the Ki in assay [1] came out at 0.0425 µM; in assay [2], 2.1 µM.

In the case of `CC(C)(C)c1ccc(-c2nc(N)c3cc(CN4CCOCC4)sc3n2)s1` [Example 14, 2-(5-tert-Butyl-thiophen-2-yl)-6-morpholin-4-ylmethyl-thieno[2,3-d]pyrimidin-4-ylamine], the Ki in assay [1] is > 2.34 µM; in assay [2] it was > 0.927 µM.

Regarding `CC(C)c1ccc(-c2nc(N)c3cc(CN4[C@H](C)CCC[C@@H]4C)sc3n2)o1` [Example 10, 6-(2,6-Dimethyl-piperidin-1-ylmethyl)-2-(5-isopropyl-furan-2-yl)-thieno[2,3-d]pyrimidin-4-ylamine], the Ki turned out to be 0.0173 µM in assay [1] and 0.144 µM in assay [2].

On to `Nc1nc(-c2ccc(C(F)F)o2)nc2sc(CN3CCC(F)CC3)cc12` [Example 100, 2-(5-Difluoromethyl-furan-2-yl)-6-(4-fluoro-piperidin-1-ylmethyl)-thieno[2,3-d]pyrimidin-4-ylamine], for which the figures for the Ki in assay [1] and in assay [2] were 0.0424 µM and 1.67 µM, respectively.

For `Nc1nc(-c2cccc(Cl)c2)nc2sc(CN3CCC(F)CC3)cc12` [Example 48, 2-(3-Chloro-phenyl)-6-(4-fluoro-piperidin-1-ylmethyl)-thieno[2,3-d]pyrimidin-4-ylamine], the values for the Ki in assay [1] and in assay [2] were 0.733 µM and 0.855 µM, respectively.

Take `N#Cc1ccc(-c2nc(N)c3cc(CN4CCC(F)CC4)sc3n2)cc1` [Example 66, 4-[4-Amino-6-(4-fluoro-piperidin-1-ylmethyl)-thieno[2,3-d]pyrimidin-2-yl]-benzonitrile]: the inhibitory constant (Ki) in assay [1] turned out to be 1.39 µM; in assay [2], 8.43 µM.

Turning to `Cc1csc(-c2nc(N)c3cc(CN4CCOCC4)sc3n2)n1` [Example 15, 2-(4-Methyl-thiazol-2-yl)-6-morpholin-4-ylmethyl-thieno[2,3-d]pyrimidin-4-ylamine], the Ki in assay [1] is 0.208 µM; in assay [2], > 0.927 µM.

Regarding `CCN(CC)Cc1cc2c(N)nc(-c3ccc(C(F)F)o3)nc2s1` [Example 103, 6-Diethylaminomethyl-2-(5-difluoromethyl-furan-2-yl)-thieno[2,3-d]pyrimidin-4-ylamine], the Ki in assay [1] is 0.131 µM; in assay [2], 2.09 µM.

As for `COc1cccc(-c2nc(N)c3cc(CN4CCC(F)CC4)sc3n2)c1` [Example 71, 6-(4-Fluoro-piperidin-1-ylmethyl)-2-(3-methoxy-phenyl)-thieno[2,3-d]pyrimidin-4-ylamine], the values for the inhibitory constant (Ki) in assay [1] and in assay [2] were 0.303 µM and 3.22 µM, respectively.

In the case of `C[C@@H]1CCC[C@H](C)N1Cc1cc2c(N)nc(-c3ccc(C(F)F)o3)nc2s1` [Example 102, 2-(5-Difluoromethyl-furan-2-yl)-6-(2,6-dimethyl-piperidin-1-ylmethyl)-thieno[2,3-d]pyrimidin-4-ylamine], the inhibitory constant (Ki) in assay [1] worked out at 0.0276 µM; in assay [2] it was 0.732 µM.

As to `Nc1nc(-c2ccc[nH]2)nc2sc(CN3CCC(F)CC3)cc12` [Example 81, 6-(4-Fluoro-piperidin-1-ylmethyl)-2-(1H-pyrrol-2-yl)-thieno[2,3-d]pyrimidin-4-ylamine], the inhibitory constant (Ki) stood at 0.795 µM in assay [1] and 3.89 µM in assay [2].

For `Nc1nc(-c2cc(F)cc(F)c2)nc2sc(CN3CCOCC3)cc12` [Example 47, 2-(3,5-Difluoro-phenyl)-6-morpholin-4-ylmethyl-thieno[2,3-d]pyrimidin-4-ylamine], the Ki was 0.349 µM in assay [1] and 2.3 µM in assay [2].

In the case of `N#Cc1ccc(-c2nc(N)c3cc(CN4CCCCCC4)sc3n2)cc1` [Example 67, 4-(4-Amino-6-azepan-1-ylmethyl-thieno[2,3-d]pyrimidin-2-yl)-benzonitrile], the inhibition constant Ki in assay [1] is 0.384 µM; in assay [2] it was 8.55 µM.

For the compound `C[C@@H]1CCC[C@H](C)N1Cc1cc2c(N)nc(-c3ccc(Br)o3)nc2s1` [Example 19, 2-(5-Bromo-furan-2-yl)-6-(2,6-dimethyl-piperidin-1-ylmethyl)-thieno[2,3-d]pyrimidin-4-ylamine], the figures for the Ki in assay [1] and in assay [2] were 0.012 µM and 0.0396 µM, respectively.

For `C[C@@H]1CCC[C@H](C)N1Cc1cc2c(N)nc(-c3ccc(C(C)(C)C)s3)nc2s1` [Example 13, 2-(5-tert-Butyl-thiophen-2-yl)-6-(2,6-dimethyl-piperidin-1-ylmethyl)-thieno[2,3-d]pyrimidin-4-ylamine], the Ki is > 2.34 µM in assay [1] and > 0.927 µM in assay [2].

Take `CCc1ccc(-c2nc(N)c3cc(CN4CCOCC4)sc3n2)o1` [Example 8, 2-(5-Ethyl-furan-2-yl)-6-morpholin-4-ylmethyl-thieno[2,3-d]pyrimidin-4-ylamine]: the results for the Ki in assay [1] and in assay [2] were 0.0782 µM and > 0.61 µM, respectively.

As to `Nc1nc(C2CC2)nc2sc(CN3CCCC3)cc12` [Example 43, 2-Cyclopropyl-6-pyrrolidin-1-ylmethyl-thieno[2,3-d]pyrimidin-4-ylamine], the results for the Ki in assay [1] and in assay [2] were 0.404 µM and > 10 µM, respectively.

In the case of `Nc1nc(-c2ccc(C3CC3)o2)nc2sc(CN3CCOCC3)cc12` [Example 22, 2-(5-Cyclopropyl-furan-2-yl)-6-morpholin-4-ylmethyl-thieno[2,3-d]pyrimidin-4-ylamine], the Ki is 0.958 µM in assay [1] and > 1.07 µM in assay [2].

For the compound `Nc1nc(-c2cccc(Cl)c2)nc2sc(CN3CCOCC3)cc12` [Example 49, 2-(3-Chloro-phenyl)-6-morpholin-4-ylmethyl-thieno[2,3-d]pyrimidin-4-ylamine], the values for the Ki in assay [1] and in assay [2] were 0.117 µM and 0.785 µM, respectively.

As for `C[C@@H]1CCC[C@H](C)N1Cc1cc2c(N)nc(-c3ccc(C4CC4)o3)nc2s1` [Example 12, 2-(5-Cyclopropyl-furan-2-yl)-6-(2,6-dimethyl-piperidin-1-ylmethyl)-thieno[2,3-d]pyrimidin-4-ylamine], the inhibition constant Ki worked out at 0.114 µM in assay [1] and 0.333 µM in assay [2].

With `Nc1nc(-c2ccc(F)c(F)c2)nc2sc(CN3CCOCC3)cc12` [Example 50, 2-(3,4-Difluoro-phenyl)-6-morpholin-4-ylmethyl-thieno[2,3-d]pyrimidin-4-ylamine], the figures for the Ki in assay [1] and in assay [2] were 0.361 µM and 2.89 µM, respectively.

In the case of `N#Cc1cccc(-c2nc(N)c3cc(CN4CCCC4c4ccccc4)sc3n2)c1` (centres unmarked) [Example 20, 3-[4-Amino-6-(2-phenyl-pyrrolidin-1-ylmethyl)-thieno[2,3-d]pyrimidin-2-yl]-benzonitrile], the Ki in assay [1] was found to be 0.154 µM; in assay [2] it was 0.762 µM.

The values are drawn from patent US20100093702A1, “METHYLENE AMINES OF THIENO[2,3-d]PYRIMIDINE AND THEIR USE AS ADENOSINE A2a RECEPTOR ANTAGONISTS” (priority 2008, published 2010).
